Experimental data from patent US5990147A, “H3 receptor ligands of the phenyl-alkyl-imidazoles type” (Schering Corporation, priority 1998, dated 1999).
Where two headings read alike, the source gives them in different places.

Tests used:
H3 receptors = target: T1, H3 receptors (Cavia porcellus, UniProt Q9JI35); experiment: H3-Receptor Binding Assay (guinea pig brain membranes, [3H]R-a-methylhistamine or [3H]Na-methylhistamine)
T1 construct: The source of the H3 receptors in this experiment was guinea pig brain; from tissue; host or cells: guinea pig brain membranes
Method: The source of the H3 receptors in this experiment was guinea pig brain. The animals weighed 400-600 g. The brain tissue was homogenized using a Polytron in a solution of 50 mM Tris, pH 7.5. The final concentration of tissue in the homogenization buffer was 10% w/v. The homogenates were centrifuged at 1,000×g for 10 min. in order to remove clumps of tissue and debris. The resulting supernatants were then centrifuged at 50,000×g for 20 min. in order to sediment the membranes, which were next washed three times in homogenization buffer (50,000×g for 20 min. each). The membranes were frozen and stored at -70° C. until needed.
All compounds to be tested were dissolved in DMSO and then diluted into the binding buffer (50 mM Tris, pH 7.5) such that the final concentration was 2 μg/ml with 0.1% DMSO. Membranes were then added (400 μg of protein) to the reaction tubes. The reaction was started by the addition of 3 nM [^3 H]R-a-methylhistamine (8.8 Ci/mmol) or 3 nM [^3 H]N^a -methylhistamine (80 Ci/mmol) and continued under incubation at 30° C. for 30 min. Bound ligand was separated from unbound ligand by filtration, and the amount of radioactive ligand bound to the membranes was quantitated by liquid scintillation spectrometry. All incubations were performed in duplicate and the standard error was always less than 10%. […] The results are given in the table below for the HCl salt of the indicated compound.

[1] = system: short-term memory and reversal learning; settings: rat; Clapham et al., Brit. J. Pharm. Suppl. 1993; cited from earlier work
[2] = system: electrically induced convulsions; settings: mice; Yokoyama et al., Eur. J. Pharmacol. 1993; cited from earlier work
[3] = HCl salt of the indicated compound, guinea pig brain membranes, 3 nM [3H]R-a-methylhistamine or 3 nM [3H]Na-methylhistamine, pH 7.5, 30° C., 30 min, read-out: Ki

T1 sequence (Q9JI35 whole entry): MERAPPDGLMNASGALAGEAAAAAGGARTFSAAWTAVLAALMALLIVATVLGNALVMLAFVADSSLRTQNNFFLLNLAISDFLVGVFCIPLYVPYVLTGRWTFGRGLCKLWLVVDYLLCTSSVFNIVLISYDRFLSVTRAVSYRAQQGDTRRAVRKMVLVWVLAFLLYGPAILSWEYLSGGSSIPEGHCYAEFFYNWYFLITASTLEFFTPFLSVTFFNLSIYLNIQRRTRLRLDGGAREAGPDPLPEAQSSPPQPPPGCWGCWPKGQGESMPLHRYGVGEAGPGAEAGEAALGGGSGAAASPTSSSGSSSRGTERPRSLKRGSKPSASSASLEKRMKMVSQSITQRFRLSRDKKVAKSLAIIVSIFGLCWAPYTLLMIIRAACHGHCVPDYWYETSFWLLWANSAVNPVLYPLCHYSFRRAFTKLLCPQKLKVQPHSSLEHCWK

`COc1cccc(NC(=O)NCc2ccc(Cc3c[nH]cn3)cc2)c1` [Compound 1] showed a Ki (H3 receptors; [3]) of 18 nM.
In the case of `O=C(NCc1ccc(Cc2c[nH]cn2)cc1)Nc1cc(C(F)(F)F)cc(C(F)(F)F)c1` [Compound 2], the Ki (H3 receptors; [3]) is reported as 22 nM.
Compound `Cc1cc(C)cc(NC(=O)NCc2ccc(Cc3c[nH]cn3)cc2)c1` [Compound 3] has a Ki (H3 receptors; [3]) of 9 nM.
For `O=C(NCc1ccc(Cc2c[nH]cn2)cc1)Nc1ccccc1Cl` [Compound 4], the Ki (H3 receptors; [3]) was 32 nM.
Compound `O=C(NCc1ccc(Cc2c[nH]cn2)cc1)Nc1cccc(C(F)(F)F)c1` [Compound 6] has a Ki (H3 receptors; [3]) of 16 nM.
With `N#Cc1cccc(NC(=O)NCc2ccc(Cc3c[nH]cn3)cc2)c1` [Compound 7] the Ki (H3 receptors; [3]) was 5 nM.
Compound `O=C(NCc1ccc(Cc2c[nH]cn2)cc1)Nc1cc(Cl)cc(Cl)c1` [Compound 8] has a Ki (H3 receptors) of 12 nM and a Ki (H3 receptors; [3]) of 4 nM.
`O=C(NCc1ccc(Cc2c[nH]cn2)cc1)Nc1cccc(Cl)c1` [Compound 9] showed a Ki (H3 receptors; [3]) of 6 nM.
In the case of `O=C(NCc1ccc(Cc2c[nH]cn2)cc1)Nc1ccc(Cl)c(Cl)c1` [Compound 10], the Ki (H3 receptors; [3]) is reported as 7 nM.
For `O=C(Nc1cccc(C(F)(F)F)c1)OCc1ccc(Cc2c[nH]cn2)cc1` [Compound 12], the Ki (H3 receptors) was 21 nM.
`O=C(Nc1ccc(Cl)c(Cl)c1)OCc1ccc(Cc2c[nH]cn2)cc1` [Compound 13] gave a Ki (H3 receptors; [3]) of 18 nM.
Work on `Cc1cc(C)cc(NC(=O)OCc2ccc(Cc3c[nH]cn3)cc2)c1` [Compound 14] yielded a Ki (H3 receptors) of 17 nM.
`N#Cc1cccc(NC(=O)OCc2ccc(Cc3c[nH]cn3)cc2)c1` [Compound 15] gave a Ki (H3 receptors) of 7 nM.
With `COc1cccc(NC(=O)OCc2ccc(Cc3c[nH]cn3)cc2)c1` [Compound 17] the Ki (H3 receptors) was 13 nM.
With `O=C(Nc1cc(C(F)(F)F)cc(C(F)(F)F)c1)OCc1ccc(Cc2c[nH]cn2)cc1` [Compound 18] the Ki (H3 receptors; [3]) was 23 nM.
With `O=C(Nc1cccc(F)c1)OCc1ccc(Cc2c[nH]cn2)cc1` [Compound 19] the Ki (H3 receptors) was 5 nM.
Work on `O=C(Nc1cc(Cl)cc(Cl)c1)OCc1ccc(Cc2c[nH]cn2)cc1` [Compound 20] yielded a Ki (H3 receptors; [3]) of 5 nM.
Work on `O=C(CCc1ccc(Cc2c[nH]cn2)cc1)Nc1ccccc1` [Compound 21] yielded a Ki (H3 receptors) of 2 nM.
`O=C(CCc1ccc(Cc2c[nH]cn2)cc1)Nc1cccc(Cl)c1` [Compound 22] showed a Ki (H3 receptors) of 1 nM.
For `O=C(CCc1ccc(Cc2c[nH]cn2)cc1)NCCc1ccc(Cl)cc1` [Compound 24], the Ki (H3 receptors) was 5 nM.
For `S=C(NC1CCCCC1)N1CCC(c2cnc[nH]2)CC1` [thioperamide], the “short-term memory and reversal learning” value [1] is listed as “can improve short-term memory and reversal learning in the rat”, the “duration of each phase of convulsion” value [2] is listed as “decreased the duration of each phase of convulsion” and the electroconvulsive threshold [2] is listed as “raised the electroconvulsive threshold”.
